{"source": "paper PMC9229843", "about": "“Cancer-Related Somatic Mutations in Transmembrane Helices Alter Adenosine A1 Receptor Pharmacology” (Molecules, 2022)", "key": {"hA1AR S267I^7.32": {"molecular_target": "T1, hA1AR S267I^7.32 (Homo sapiens, UniProt P30542, S267I)", "T1 construct": "expressed in transfected cells; host or cells: S. cerevisiae MMY24", "T1 sequence (P30542 1-326 S267I)": "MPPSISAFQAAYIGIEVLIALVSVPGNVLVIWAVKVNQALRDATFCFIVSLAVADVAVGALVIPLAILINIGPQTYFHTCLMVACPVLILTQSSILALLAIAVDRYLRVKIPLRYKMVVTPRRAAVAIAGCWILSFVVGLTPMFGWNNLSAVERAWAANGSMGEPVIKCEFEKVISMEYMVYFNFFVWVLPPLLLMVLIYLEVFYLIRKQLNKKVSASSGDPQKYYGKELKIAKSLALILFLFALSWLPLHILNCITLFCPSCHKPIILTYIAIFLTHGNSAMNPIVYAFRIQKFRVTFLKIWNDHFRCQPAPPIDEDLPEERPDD", "test": "yeast liquid growth assay", "type": "cell-based", "settings": "result in words"}, "hA1AR D55V^2.50": {"molecular_target": "T2, hA1AR D55V^2.50 (Homo sapiens, UniProt P30542, D55V)", "T2 construct": "expressed in transfected cells; host or cells: S. cerevisiae MMY24", "T2 sequence (P30542 1-326 D55V)": "T1 sequence (P30542 1-326 S267I) with D55V, I267S", "test": "yeast liquid growth assay", "type": "cell-based", "settings": "result in words"}, "wild type hA1AR [1]": {"molecular_target": "T3, wild type hA1AR (Homo sapiens, UniProt P30542)", "T3 sequence (P30542 1-326)": "T1 sequence (P30542 1-326 S267I) with I267S", "test": "yeast liquid growth assay", "type": "cell-based", "settings": "ratio over basal activity of wild type hA1AR, 7 mM 3-AT"}, "hA1AR L134F^4.52": {"molecular_target": "T4, hA1AR L134F^4.52 (Homo sapiens, UniProt P30542, L134F)", "T4 sequence (P30542 1-326 L134F)": "T1 sequence (P30542 1-326 S267I) with L134F, I267S", "test": "yeast liquid growth assay", "type": "cell-based", "settings": "result in words"}, "wild type hA1AR [2]": {"molecular_target": "T3, wild type hA1AR", "settings": "[35S]GTPγS; ratio over basal activity of wild type hA1AR", "procedure": "Transient transfection of CHO cells with wild type or mutated hA1AR plasmid constructs was performed using a polyethylenimine (PEI) method. Cells were seeded in 10-cm culture dishes to achieve 50–60% confluency 24 h prior to transfection. On the day of transfection, cells were transfected with a PEI: DNA ratio of 3:1 and a plasmid DNA amount of 10 μg/dish. Moreover, 24 h post-transfection, the medium was refreshed, and 48 h after transfection, cells were collected and membranes were prepared as previously described. Membranes were aliquoted in 250 or 100 μL and stored at −80 °C. Membrane protein concentrations were determined using the BCA method.\n[^35S]GTPγS binding assays were adapted from a previously published method. […] Then, 20 µL of [^35S]GTPγS (final concentration of 0.3 nM) was added to each well, followed by 90 min of incubation at 25 °C. Incubations were terminated and filter-bound radioactivity was measured as described above.\nAll experimental data were analyzed by GraphPad Prism 7.0 or 8.0 (GraphPad Software Inc., San Diego, CA, USA). Data from yeast liquid growth and [^35S]GTPγS binding assays were analyzed by non-linear regression using “log (agonist) vs. response (three parameters)” or “log (inhibitor) vs. response (three parameters)” to obtain potency (EC50), inhibitory potency (IC50), and efficacy (Emax or Imax) values. The radioligand displacement curves were obtained from a statistically preferred one-site or two-site binding model. pKi values were calculated from pIC50 values using the Cheng–Prusoff equation, where KD values were obtained from the homologous competition assays from this study and calculated by non-linear regression using “one site–homologous” [62]."}}, "note": "Where a chain is given by its changes, count along the chain named. “Also recorded” adds a separate entry of the source. Like-named read-outs stand apart in the source and are kept apart here."}
{"smiles": "OC[C@H]1O[C@@H](n2cnc3c(NC4CCCC4)ncnc32)[C@H](O)[C@@H]1O", "note": "[CPA, N^6-cyclopentyladenosine]", "values": [{"measurement": "agonist-induced receptor activation", "setting": "hA1AR S267I^7.32", "value": "could not be activated; also recorded: complete loss of activation"}, {"measurement": "agonist-induced receptor activation", "setting": "hA1AR D55V^2.50", "value": "could not be activated"}, {"measurement": "Emax", "setting": "wild type hA1AR [1]", "value": "4.83 ± 0.30"}, {"measurement": "agonist-induced receptor activation", "setting": "hA1AR L134F^4.52", "value": "could not be activated"}, {"measurement": "Emax", "setting": "wild type hA1AR [2]", "value": "1.48 ± 0.13"}]}
